Results as given in patent publication US10898504B2, “Substituted nucleoside analogues for use as PRMT5 inhibitors” (Janssen Pharmaceutica NV, priority 2016, dated 2021).

Tests used:
PRMT5-MEP50 enzyme = target: T1, PRMT5-MEP50 enzyme (Homo sapiens, UniProt O14744); test: In vitro assay (Assay 1): PRMT5-MEP50 high throughput mass spectrometer assay, inhibition of SAH formation; format: biochemical; details: individual measurements shown, read-out: pIC50 Assay 1 (converted)
T1 construct: One virus expresses full length human PRMT5 with Flag-tag at N-terminus
T1 sequence (O14744 whole entry): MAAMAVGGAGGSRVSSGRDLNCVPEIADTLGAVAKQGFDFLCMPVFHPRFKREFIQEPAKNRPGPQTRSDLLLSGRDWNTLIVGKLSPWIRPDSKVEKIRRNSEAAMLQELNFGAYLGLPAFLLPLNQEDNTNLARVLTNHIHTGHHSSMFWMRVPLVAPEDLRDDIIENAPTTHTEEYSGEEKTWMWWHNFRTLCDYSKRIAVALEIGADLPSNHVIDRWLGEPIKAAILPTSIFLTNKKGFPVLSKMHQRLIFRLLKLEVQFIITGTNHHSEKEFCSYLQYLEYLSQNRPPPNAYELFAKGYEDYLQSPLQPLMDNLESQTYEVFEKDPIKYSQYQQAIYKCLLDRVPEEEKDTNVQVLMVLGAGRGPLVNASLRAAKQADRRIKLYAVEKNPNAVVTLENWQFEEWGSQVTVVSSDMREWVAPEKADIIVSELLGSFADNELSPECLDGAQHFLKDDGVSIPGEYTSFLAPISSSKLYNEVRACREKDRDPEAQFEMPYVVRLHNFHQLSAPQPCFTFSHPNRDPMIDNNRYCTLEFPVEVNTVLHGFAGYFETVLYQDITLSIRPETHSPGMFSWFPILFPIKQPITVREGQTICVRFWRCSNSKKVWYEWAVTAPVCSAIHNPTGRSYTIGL
T1 sequence (Q9BQA1 whole entry partner): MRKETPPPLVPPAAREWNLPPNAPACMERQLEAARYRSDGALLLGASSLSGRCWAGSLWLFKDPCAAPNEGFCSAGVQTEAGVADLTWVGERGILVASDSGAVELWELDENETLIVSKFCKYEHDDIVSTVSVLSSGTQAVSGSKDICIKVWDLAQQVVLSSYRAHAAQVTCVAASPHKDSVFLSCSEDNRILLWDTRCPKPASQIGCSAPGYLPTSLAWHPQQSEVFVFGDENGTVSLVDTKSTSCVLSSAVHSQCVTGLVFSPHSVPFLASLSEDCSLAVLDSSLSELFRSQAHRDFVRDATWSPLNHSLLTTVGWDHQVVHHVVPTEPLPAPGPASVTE
Summary of the method: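 Flag-PRMT5/His-MEP50 full-length human complex (Sf9-expressed), 10 nM, with 1 μM SAM and 0.3 μM histone H2A in 20 mM Tris-HCl pH 8.5, 50 mM NaCl, 5 mM MgCl2, 1 mM DTT; 60 min at 30 °C, quenched with 1% formic acid. SAH quantified by RapidFire MS; IC50 from 11-point 1:2 series fitted to four-parameter Hill equation.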

A549 cells = test: PD assay (Assay 2): inhibition of nuclear symmetric Arginine dimethylation (SYM10 immunohistochemistry) in A549 cells; format: cell-based; details: Homo sapiens, A549, PD assay in A549 cells, individual measurements shown, read-out: pIC50 Assay 2 (converted)
Summary of the method: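 A549 cells dosed with a nine-point series (0.2% DMSO) for 48 h at 37° C, then fixed and immunostained with SYM10 anti-symmetric-dimethylarginine antibody, plus Hoechst and CellMask counterstains for high-content imaging. Nuclear signal normalized between DMSO and 10 μM reference-compound controls to derive IC50/pIC50.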

| SMILES | IC50 (PRMT5-MEP50 enzyme) | IC50 (A549 cells) |
| --- | --- | --- |
| Nc1ncnc2c1ccn2[C@@H]1O[C@H](CN2CCC23CCNCC3)[C@@H](O)[C@H]1O [Compound 112] | 33.1 nM | ~1780 nM |
| Nc1ncnc2c1ccn2[C@@H]1O[C@H](CN2CCCCC23CCNCC3)[C@@H](O)[C@H]1O [Compound 113] | 8.13 nM | 145 nM |
| Nc1ncnc2c1ccn2[C@@H]1O[C@H](CN2CCCC3(CCNCC3)C2)[C@@H](O)[C@H]1O [Compound 114] | 33.9 nM | ~1070 nM |
| CN1CCC2(CC1)CC(F)(F)CN2CC1C[C@@H](n2ccc3c(N)ncnc32)[C@H](O)[C@@H]1O (stereo partly drawn) [Compound 123] | 22.4 nM | 162 nM |
| Nc1ncnc2c1ccn2[C@@H]1C[C@H](CN2CCCC23CCNCC3)[C@@H](O)[C@H]1O [Compound 124] | 27.5 nM | 447 nM |
| CN1CCC2(CCCN2CC2C[C@@H](n3ccc4c(N)ncnc43)[C@H](O)[C@@H]2O)CC1 (stereo partly drawn) [Compound 125] | 148 nM | ~871 nM |
| Nc1ncnc2c1ccn2[C@@H]1C[C@H](CN2CC(F)(F)CC23CCNCC3)[C@@H](O)[C@H]1O [Compound 126] | 17.4 nM | 44.7 nM |
| NCC[C@@H]1CCCN1C[C@H]1CN(C2C=Cc3c(N)ncnc32)[C@H](O)[C@@H]1O (stereo partly drawn) [Compound 127] | 61.7 nM | ~2750 nM |
| Nc1ncnn2c([C@@H]3O[C@H](CN4CCOC[C@H]4CN4CCCC4)[C@@H](O)[C@H]3O)ccc12 [Compound 131] | > 10000 nM | > 20000 nM |
| Nc1ncnn2c([C@@H]3O[C@H](CN4CCCC45CCNCC5)[C@@H](O)[C@H]3O)ccc12 [Compound 133] | 28.8 nM | ~1050 nM |
| CN1CCC2(CCCN2C[C@H]2O[C@@H](c3ccc4c(N)ncnn34)[C@H](O)[C@@H]2O)CC1 [Compound 135] | 617 nM | ~1050 nM |
| Nc1ncnn2c([C@@H]3O[C@H](CN4CC(F)(F)CC45CCNCC5)[C@@H](O)[C@H]3O)ccc12 [Compound 136] | 50.1 nM | ~263 nM |
| Nc1ncnn2c([C@@H]3O[C@H](CN4C(C(F)(F)F)CCC45CCNCC5)[C@@H](O)[C@H]3O)ccc12 (stereo partly drawn) [Compound 137] | 1150 nM | > 10000 nM |
| Nc1ncnn2c([C@@H]3O[C@H](CN4CCCC45CCN(CCc4ccc(F)cc4)CC5)[C@@H](O)[C@H]3O)ccc12 [Compound 139] | 3240 nM | 1660 nM |
| N#CCN1CCC2(CCCN2C[C@H]2O[C@@H](c3ccc4c(N)ncnn34)[C@H](O)[C@@H]2O)CC1 [Compound 140] | 295 nM | ~3020 nM |
| Nc1ncnn2c([C@@H]3O[C@H](CN4CCCC45CCN(CC(F)(F)F)CC5)[C@@H](O)[C@H]3O)ccc12 [Compound 141] | > 10000 nM | > 10000 nM |
| CCN1CCC2(CCCN2C[C@H]2O[C@@H](c3ccc4c(N)ncnn34)[C@H](O)[C@@H]2O)CC1 [Compound 142] | 1950 nM | > 10000 nM |
| Nc1ncnn2c([C@@H]3O[C@H](CN4CC(F)(F)CC45CCN(CCc4ccc(F)cc4)CC5)[C@@H](O)[C@H]3O)ccc12 [Compound 143] | 7240 nM | 1580 nM |
| N#CCN1CCC2(CC1)CC(F)(F)CN2C[C@H]1O[C@@H](c2ccc3c(N)ncnn23)[C@H](O)[C@@H]1O [Compound 144] | 447 nM | ~933 nM |
| Nc1ncnn2c([C@@H]3O[C@H](CN4CC(F)(F)CC45CCN(CC(F)(F)F)CC5)[C@@H](O)[C@H]3O)ccc12 [Compound 145] | > 10000 nM | > 10000 nM |
| CCN1CCC2(CC1)CC(F)(F)CN2C[C@H]1O[C@@H](c2ccc3c(N)ncnn23)[C@H](O)[C@@H]1O [Compound 146] | 3980 nM | 4680 nM |
| Nc1ncnn2c([C@@H]3O[C@H](CN4CCC[C@H]4CCN4CCOCC4)[C@@H](O)[C@H]3O)ccc12 [Compound 150] | > 10000 nM | > 10000 nM |
| Nc1ncnn2c([C@@H]3O[C@H](C(=O)N4CCCC45CCNCC5)[C@@H](O)[C@H]3O)ccc12 [Compound 161] | 380 nM | 4170 nM |
| CN(C)CC[C@@H]1CC(F)(F)CN1C(=O)[C@H]1O[C@@H](c2ccc3c(N)ncnn23)[C@H](O)[C@@H]1O [Compound 162] | 3800 nM | > 20000 nM |
| Nc1ncnc2c1ccn2[C@@H]1C[C@H](C(=O)N2CCCC23CCNCC3)[C@@H](O)[C@H]1O [Compound 163] | 8.51 nM | 126 nM |
| CC(C)C(=O)O[C@@H]1[C@@H](CN2CC(F)(F)CC23CCNCC3)C[C@@H](n2ccc3c(N)ncnc32)[C@@H]1OC(=O)C(C)C [Compound 164] | > 10000 nM | ~6460 nM |
| Nc1ncnn2c([C@@H]3O[C@H](CN4CCC45CCNCC5)[C@@H](O)[C@H]3O)ccc12 [Compound 165] | 871 nM | > 10000 nM |

The remaining lines, values ahead:

| IC50 (PRMT5-MEP50 enzyme) | IC50 (A549 cells) | SMILES |
| --- | --- | --- |
| 204 nM | > 10000 nM | NCC[C@@H]1CC(F)(F)CCN1C[C@H]1O[C@@H](c2ccc3c(N)ncnn23)[C@H](O)[C@@H]1O [Compound 128] |
| > 10000 nM | > 20000 nM | CN(C)C[C@@H]1COCCN1C[C@H]1O[C@@H](c2ccc3c(N)ncnn23)[C@H](O)[C@@H]1O [Compound 129] |
| > 10000 nM | > 20000 nM | Nc1ncnn2c([C@@H]3O[C@H](CN4CCOC[C@H]4CN4CCC(F)(F)C4)[C@@H](O)[C@H]3O)ccc12 [Compound 130] |
| 1550 nM | > 20000 nM | NC[C@@H]1COCCN1C[C@H]1O[C@@H](c2ccc3c(N)ncnn23)[C@H](O)[C@@H]1O [Compound 132] |
| 200 nM | 8910 nM | NCC[C@@H]1COCCN1C[C@H]1O[C@@H](c2ccc3c(N)ncnn23)[C@H](O)[C@@H]1O [Compound 134] |
| 186 nM | 603 nM | CN1CCC2(CC1)CC(F)(F)CN2C[C@H]1O[C@@H](c2ccc3c(N)ncnn23)[C@H](O)[C@@H]1O [Compound 147] |
| 1260 nM | > 10000 nM | CN(C)CC[C@@H]1CCCN1C[C@H]1O[C@@H](c2ccc3c(N)ncnn23)[C@H](O)[C@@H]1O [Compound 148] |
| 5500 nM | ~6170 nM | CN(C)C[C@@H]1CC(F)(F)CN1C[C@H]1O[C@@H](c2ccc3c(N)ncnn23)[C@H](O)[C@@H]1O [Compound 151] |
| 2950 nM | 4070 nM | CN(C)CC[C@@H]1CC(F)(F)CN1C[C@H]1O[C@@H](c2ccc3c(N)ncnn23)[C@H](O)[C@@H]1O [Compound 152] |
| > 10000 nM | > 10000 nM | Nc1ncnn2c([C@@H]3O[C@H](CN4CC(F)(F)C[C@H]4CCN4CCOCC4)[C@@H](O)[C@H]3O)ccc12 [Compound 154] |
| 2510 nM | > 10000 nM | Nc1ncnn2c([C@@H]3O[C@H](CN4CC(F)(F)C[C@H]4CCN4CCCC4)[C@@H](O)[C@H]3O)ccc12 [Compound 155] |
| 26.3 nM | 1050 nM | NCC[C@@H]1CC(F)(F)CN1C[C@H]1O[C@@H](c2ccc3c(N)ncnn23)[C@H](O)[C@@H]1O [Compound 156] |
| > 10000 nM | > 20000 nM | CN(C)C[C@@H]1CC(F)(F)CCN1C[C@H]1O[C@@H](c2ccc3c(N)ncnn23)[C@H](O)[C@@H]1O [Compound 157] |
| > 10000 nM | > 20000 nM | Nc1ncnn2c([C@@H]3O[C@H](CN4CCC(F)(F)C[C@H]4CN4CCCC4)[C@@H](O)[C@H]3O)ccc12 [Compound 159] |
| 2690 nM | > 20000 nM | NC[C@@H]1CC(F)(F)CCN1C[C@H]1O[C@@H](c2ccc3c(N)ncnn23)[C@H](O)[C@@H]1O [Compound 160] |
